From ChEMBL document CHEMBL3352042, “Synthesis of novel benzimidazole functionalized chiral thioureas and evaluation of their antibacterial and anticancer activities” (Bioorg Med Chem Lett, 2014) come the findings set out here.

pIC50: −log10 of the molar value. In brackets after ≈: the same amount, converted by molar mass. Activity calls are given as the source filed them. No cut-off for these calls is given here. A value given as a limit tells only on which side of the number the result lay.

Test [1] relates to Staphylococcus aureus. The experiment in a line: Antibacterial activity against Staphylococcus aureus MTCC 96 after 24 hrs by well diffusion method. The class given is functional.
Test [2] deals with Bacillus subtilis. Nature of the test: Antibacterial activity against Bacillus subtilis MTCC 121 after 24 hrs by well diffusion method. The class given is functional.
Test [3] relates to Staphylococcus aureus. Nature of the test: Antibacterial activity against Staphylococcus aureus MLS16 MTCC 2940 after 24 hrs by well diffusion method. In kind it is functional.
Test [4] concerns Micrococcus luteus. Nature of the test: Antibacterial activity against Micrococcus luteus MTC 2470 after 24 hrs by well diffusion method. In kind it is functional.
The test system of test [5] is Raoultella planticola. Nature of the test: Antibacterial activity against Klebsiella planticola MTCC 530 after 24 hrs by well diffusion method. The class given is functional.
Test [6] concerns Escherichia coli. Nature of the test: Antibacterial activity against Escherichia coli MTCC 739 after 24 hrs by well diffusion method. The class given is functional.
In test [7] the test system is Pseudomonas aeruginosa. The experiment in a line: Antibacterial activity against Pseudomonas aeruginosa MTCC 2453 after 24 hrs by well diffusion method. The class given is functional.
The subject of test [8] is A549. Nature of the test: Cytotoxicity against human A549 cells by MTT assay. In kind it is functional, cell-based. The note with it: for pIC50: Homo sapiens, A549, read-out: IC50.
In test [9] the test system is MCF7. Nature of the test: Cytotoxicity against human MCF7 cells by MTT assay. The settings on record: for pIC50: Homo sapiens, MCF7, read-out: IC50. In kind it is functional, cell-based.
The test system of test [10] is DU-145. Nature of the test: Cytotoxicity against human DU145 cells by MTT assay. In kind it is functional, cell-based. The note with it: for pIC50: Homo sapiens, DU-145, read-out: IC50.
The test system of test [11] is HeLa. The experiment in a line: Cytotoxicity against human HeLa cells by MTT assay. The note with it: for pIC50: Homo sapiens, HeLa, read-out: IC50. In kind it is functional, cell-based.

For `CC(C)[C@H](NC(=S)Nc1ccccc1)c1nc2ccccc2[nH]1`, the MIC in test [1] (MTCC 96, 24 h) is over 200 µg/mL; in [2] (MTCC 121, 24 h), over 200 µg/mL; in test [3] (MLS16 MTCC 2940, 24 h) it was over 200 µg/mL; in test [4] (MTC 2470, 24 h) it was over 200 µg/mL; in test [5] (MTCC 530, 24 h), over 200 µg/mL; in test [6] (MTCC 739, 24 h), over 200 µg/mL. In test [7] (MTCC 2453, 24 h), this compound had a minimal inhibitory concentration (MIC) of over 200 µg/mL. Also, the negative-log IC50 (pIC50) was 5.28 in test [8], 5.01 in [9], 4.91 in test [10] and 4.95 in test [11].

`CC(C)C[C@H](NC(=S)Nc1cc(C(F)(F)F)cc(C(F)(F)F)c1)c1nc2ccccc2[nH]1`: the MIC in [1] (MTCC 96, 24 h) was determined as 25 µg/mL (≈ 52.7 µM); in test [2] (MTCC 121, 24 h) it was 12.5 µg/mL (≈ 26.3 µM); in [3] (MLS16 MTCC 2940, 24 h), 12.5 µg/mL (≈ 26.3 µM); in [4] (MTC 2470, 24 h), 6.25 µg/mL (≈ 13.2 µM); in test [5] (MTCC 530, 24 h), 12.5 µg/mL (≈ 26.3 µM); in test [6] (MTCC 739, 24 h), 12.5 µg/mL (≈ 26.3 µM). In addition, the minimal inhibitory concentration (MIC) in test [7] (MTCC 2453, 24 h) was determined as 25 µg/mL (≈ 52.7 µM). Besides, the pIC50 was 4.76 in [8], 4.79 in test [9], 4.76 in [10] and 4.74 in test [11].

Regarding `CC(C)[C@H](NC(=S)Nc1cc(C(F)(F)F)cc(C(F)(F)F)c1)c1nc2ccccc2[nH]1`, the MIC worked out at 25 µg/mL (≈ 54.3 µM) in test [1] (MTCC 96, 24 h); 12.5 µg/mL (≈ 27.1 µM) in test [2] (MTCC 121, 24 h); 12.5 µg/mL (≈ 27.1 µM) in test [3] (MLS16 MTCC 2940, 24 h); 25 µg/mL (≈ 54.3 µM) in test [4] (MTC 2470, 24 h); 25 µg/mL (≈ 54.3 µM) in [5] (MTCC 530, 24 h); 12.5 µg/mL (≈ 27.1 µM) in test [6] (MTCC 739, 24 h). Also, it took 6.25 µg/mL (≈ 13.6 µM) to inhibit growth in [7] (MTCC 2453, 24 h) (MIC). Besides, the negative-log IC50 (pIC50) in test [8] was 4.60; in [9] it was 4.61; in test [10] it was 4.58; in [11], 4.54.

Turning to `S=C(Nc1ccccc1)N[C@@H](Cc1ccccc1)c1nc2ccccc2[nH]1`, the MIC is 25 µg/mL (≈ 67.1 µM) in [1] (MTCC 96, 24 h); over 200 µg/mL in test [2] (MTCC 121, 24 h); over 200 µg/mL in test [3] (MLS16 MTCC 2940, 24 h); over 200 µg/mL in test [4] (MTC 2470, 24 h); over 200 µg/mL in test [5] (MTCC 530, 24 h); 12.5 µg/mL (≈ 33.6 µM) in test [6] (MTCC 739, 24 h). Moreover, the minimum inhibitory concentration (MIC) in test [7] (MTCC 2453, 24 h) was over 200 µg/mL. For the same compound, the IC50 result in [8] (a549), in [9] (mcf7), in [10] (du-145) and in [11] (hela) was “Not Active” in each case.

On to `CC(C)C[C@@H](NC(=S)NCc1ccccc1)c1nc2ccccc2[nH]1`, for which the MIC entry in [1], in test [2], in [3], in test [4], in test [5] and in test [6] was “inactive” throughout. Besides, the MIC entry in test [7] is “inactive”. For the same compound, the pIC50 in test [8] is 4.65; in test [9], 4.74; in test [10], 4.67; in [11], 4.67.

Regarding `FC(F)(F)c1cc(NC(=S)N[C@@H](Cc2ccccc2)c2nc3ccccc3[nH]2)cc(C(F)(F)F)c1`, the minimal inhibitory concentration (MIC) is 12.5 µg/mL (≈ 24.6 µM) in test [1] (MTCC 96, 24 h); over 200 µg/mL in test [2] (MTCC 121, 24 h); over 200 µg/mL in test [3] (MLS16 MTCC 2940, 24 h); over 200 µg/mL in test [4] (MTC 2470, 24 h); over 200 µg/mL in test [5] (MTCC 530, 24 h); 12.5 µg/mL (≈ 24.6 µM) in [6] (MTCC 739, 24 h). In addition, the MIC in test [7] (MTCC 2453, 24 h) was over 200 µg/mL. For the same compound, the negative logarithm of the IC50 (pIC50) in [8] is 4.72; in [9], 4.72; in test [10], 4.69; in [11], 4.74.

`CC(C)C[C@H](NC(=S)Nc1ccccc1)c1nc2ccccc2[nH]1`: the minimal inhibitory concentration (MIC) in [1] (MTCC 96, 24 h) is 25 µg/mL (≈ 73.9 µM); in [2] (MTCC 121, 24 h), over 200 µg/mL; in [3] (MLS16 MTCC 2940, 24 h) it was over 200 µg/mL; in test [4] (MTC 2470, 24 h), over 200 µg/mL; in [5] (MTCC 530, 24 h), over 200 µg/mL; in test [6] (MTCC 739, 24 h), over 200 µg/mL. Also, in [7] (MTCC 2453, 24 h), the MIC is over 200 µg/mL. Also, the negative logarithm of the IC50 (pIC50) is 4.54 in [8], 4.59 in test [9], 4.54 in test [10] and 4.54 in test [11].

For the compound `C[C@H](NC(=S)Nc1cc(C(F)(F)F)cc(C(F)(F)F)c1)c1nc2ccccc2[nH]1`, the MIC in test [1] (MTCC 96, 24 h) is 12.5 µg/mL (≈ 28.9 µM); in test [2] (MTCC 121, 24 h) it was 25 µg/mL (≈ 57.8 µM); in test [3] (MLS16 MTCC 2940, 24 h), 12.5 µg/mL (≈ 28.9 µM); in test [4] (MTC 2470, 24 h) it was 25 µg/mL (≈ 57.8 µM); in test [5] (MTCC 530, 24 h) it was over 200 µg/mL; in test [6] (MTCC 739, 24 h), over 200 µg/mL. The minimum inhibitory concentration (MIC) in test [7] (MTCC 2453, 24 h) is over 200 µg/mL. The negative logarithm of the IC50 (pIC50) in [8] was 3.66; in [9], 3.73; in test [10], 3.81; in test [11] it was 3.88.
